ChEMBL document CHEMBL1144826, “Selective vasodilatation effect of sargahydroquinoic acid, an active constituent of Sargassum micracanthum, on the basilar arteries of rabbits” (Bioorg Med Chem Lett, 2008)
pEC50: −log10 of the molar value.

Legend:
[1] = Vasodialative effect on high K+-induced vasoconstriction in rabbit basilar artery; type: functional, tissue-based, Oryctolagus cuniculus
[2] = Vasodialative effect on high K+-induced vasoconstriction in rabbit carotid artery; type: functional, Oryctolagus cuniculus
[3] = Selectivity index, ratio of EC50 for vasodialative effect on high K+-induced vasoconstriction in rabbit carotid artery to basilar artery; type: functional, Oryctolagus cuniculus

pEC50 [1]: 4.93 | pEC50 [2]: 3.85
SMILES: CC(C)=CCC/C(=C/CC/C(C)=C/CC/C(C)=C/Cc1cc(O)cc(C)c1O)C(=O)O [SARGAHYDROQUINOIC ACID]
Ratio EC50 [3]: 11.9
